In general, pIC50 refers to the IC50 on a negative log10 scale, so that one unit is a factor of ten.

pIC50: −log10 of the molar value. Where two headings read alike, the source gives them in different places.

Our source for the IC50 values is US7713994B2 (Wyeth LLC, priority 2005, dated 2010).

Experiment [1] addresses T1, cyclin E/CDK2 enzyme (Homo sapiens, UniProt P24941).
T1 construct: made in house; host or cells: Sf9 insect cells, recombinant baculovirus
The experiment is described as follows: CDK2 ELISA kinase assay (phospho-Rb ser 795 detection). Format: biochemical. A digest of the protocol: (§1)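 Partially purified Sf9-expressed cyclin D1/CDK4, cyclin E/CDK2 or cyclin B/CDK1 phosphorylated plate-bound GST-Rb C-terminal fragment with 200 μM ATP at 30° C for 1 h.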

The test system of experiment [2] is BT474. The experiment is described as follows: Cytotoxicity assay (SRB), BT474. Format: cell-based. The procedure, abridged: (§2)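 BT474 (12000 cells/well) was treated for 6 days, whereas HCT-116 (4000), LoVo (6000) and MCF-7 (6000) were treated for 3 days, all in RPMI 1640 containing 5% FBS. Surviving-cell percentage came from SRB dye binding measured at 540 nm.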

For experiment [3], the system named is LoVo. The experiment is described as follows: Cytotoxicity assay (SRB), LoVo. Format: cell-based. To be noted: Homo sapiens, LoVo, 72 h, LoVo cells, SRB, read-out: In Vitro Cellular Activity IC50 LOVO. The procedure, abridged:
as §2

In experiment [4] the test system is MCF-7. The experiment is described as follows: Cytotoxicity assay (SRB), MCF-7. As to conditions: Homo sapiens, MCF7, 72 h, MCF-7 cells, SRB, read-out: In Vitro Cellular Activity IC50 MCF-7. Format: cell-based. The procedure, abridged:
as §2

The target in experiment [5] is T2, cyclin B/CDK1 enzyme (Homo sapiens, UniProt P06493).
T2 construct: purchased New England BioLabs; host or cells: Sf9 insect cells, recombinant baculovirus
T2 sequence (P06493 whole entry): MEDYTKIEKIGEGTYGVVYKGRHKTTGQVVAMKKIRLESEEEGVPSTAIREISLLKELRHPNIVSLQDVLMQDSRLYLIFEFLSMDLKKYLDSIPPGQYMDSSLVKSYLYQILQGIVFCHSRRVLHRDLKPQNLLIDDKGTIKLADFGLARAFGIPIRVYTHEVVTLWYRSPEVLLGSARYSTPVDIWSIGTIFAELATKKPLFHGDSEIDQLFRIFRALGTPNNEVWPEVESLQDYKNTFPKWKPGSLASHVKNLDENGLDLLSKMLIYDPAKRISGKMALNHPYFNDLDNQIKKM
T2 sequence (P14635 whole entry partner): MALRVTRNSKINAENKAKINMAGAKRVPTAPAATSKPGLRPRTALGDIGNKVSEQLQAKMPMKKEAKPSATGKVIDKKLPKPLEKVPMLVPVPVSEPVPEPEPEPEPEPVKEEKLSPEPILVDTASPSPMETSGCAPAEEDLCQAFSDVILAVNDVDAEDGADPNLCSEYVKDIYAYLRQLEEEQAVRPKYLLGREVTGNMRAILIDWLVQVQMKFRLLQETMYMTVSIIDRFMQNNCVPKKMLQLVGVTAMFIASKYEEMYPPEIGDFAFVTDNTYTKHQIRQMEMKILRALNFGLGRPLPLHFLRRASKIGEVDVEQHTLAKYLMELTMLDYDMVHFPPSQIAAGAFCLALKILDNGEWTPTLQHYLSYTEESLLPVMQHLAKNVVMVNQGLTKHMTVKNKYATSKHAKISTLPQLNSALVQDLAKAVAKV
The experiment is described as follows: CDK1 ELISA kinase assay (phospho-Rb ser 795 detection). Format: biochemical. The procedure, abridged: as §1
On the technique in general: In an ELISA, binding on a coated surface is turned into a signal by an enzyme label.

Experiment [6] has as its system HCT-116. The experiment is described as follows: Cytotoxicity assay (SRB), HCT-116. Format: cell-based. To be noted: Homo sapiens, HCT-116, 72 h, HCT116 cells, SRB, read-out: In Vitro Cellular Activity IC50 HCT116. A digest of the protocol: as §2
For experiment [7], the target named is T3, cyclin D1/cdk 4 enzyme (Homo sapiens, UniProt P11802).
T3 construct: made in house; host or cells: Sf9 insect cells, recombinant baculovirus
T3 sequence (P11802 whole entry, species assumed): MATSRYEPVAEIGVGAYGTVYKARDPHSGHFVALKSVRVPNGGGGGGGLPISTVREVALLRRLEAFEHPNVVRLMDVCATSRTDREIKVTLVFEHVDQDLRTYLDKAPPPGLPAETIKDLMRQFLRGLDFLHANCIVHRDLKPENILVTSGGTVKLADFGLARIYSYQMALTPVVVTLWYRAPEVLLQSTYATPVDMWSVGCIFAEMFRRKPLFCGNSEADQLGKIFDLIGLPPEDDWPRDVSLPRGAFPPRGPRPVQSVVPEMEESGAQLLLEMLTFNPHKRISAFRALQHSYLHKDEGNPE
T3 sequence (P24385 whole entry partner, species assumed): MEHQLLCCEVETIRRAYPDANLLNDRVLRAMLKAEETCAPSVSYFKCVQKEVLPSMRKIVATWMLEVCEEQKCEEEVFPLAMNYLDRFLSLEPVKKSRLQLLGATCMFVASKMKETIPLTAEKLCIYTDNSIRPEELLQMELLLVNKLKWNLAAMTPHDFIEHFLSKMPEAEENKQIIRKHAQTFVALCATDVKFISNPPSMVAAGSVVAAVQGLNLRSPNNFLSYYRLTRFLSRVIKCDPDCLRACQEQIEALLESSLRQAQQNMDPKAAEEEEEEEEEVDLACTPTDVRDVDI
The experiment is described as follows: CDK4 ELISA kinase assay (phospho-Rb ser 795 detection). Format: biochemical. A digest of the protocol: as §1

The mark [8] stands for this setting: In Vitro Enzyme Assays, read-out: CDK2 IC50.
The mark [9] stands for this setting: Homo sapiens, BT-474, 144 h, BT474 cells, SRB, 6 days; read-out: In Vitro Cellular Activity IC50 BT474.
Where [10] appears, read: In Vitro Enzyme Assays, read-out: CDK1 IC50.
The mark [11] stands for this setting: In Vitro Enzyme Assays, 200 μM ATP, read-out: CDK4 IC50.
The mark [12] stands for this setting: In Vitro Enzyme Assay, cyclin E/CDK2, read-out: CDK2 IC50.
The mark [13] stands for this setting: Homo sapiens, BT-474, 144 h, BT474 cells, 6 days, SRB; read-out: In Vitro Cellular Activity IC50 BT474.
The mark [14] stands for this setting: In Vitro Enzyme Assay, cyclin B/CDK1, read-out: CDK1 IC50.
The mark [15] stands for this setting: In Vitro Enzyme Assay, cyclin D1/cdk 4, read-out: CDK4 IC50.

For `C[C@@H]1CN(c2ccc(N/C=C3\C(=O)NC(=O)c4ccc(-c5ccsc5)cc43)cc2)C[C@H](C)N1` [Example 206, (4Z)-4-({[4-(3,5-Dimethylpiperazin-1-yl)phenyl]amino}methylene)-6-thien-3-ylisoquinoline-1,3(2H,4H)-dione], the negative logarithm of the IC50 (pIC50) in experiment [1] (setting [8]) is < 4.30; in experiment [2] (setting [9]), 5.54; in experiment [3] (three days), 5.13; in experiment [4] (three days) it was 5.43; in experiment [5] (setting [10]) it was 4.38; in experiment [6] (three days), 5.80. Further, in experiment [7] (setting [11]), the negative-log IC50 (pIC50) is 6.80.
For `Cc1ncsc1C=Cc1ccc2c(c1)C(=CNCc1ccc(S(N)(=O)=O)cc1)C(=O)NC2=O` [Example 659, 4-[({6-[2-(4-Methyl-thiazol-5-yl)-vinyl]-1,3-dioxo-2,3-dihydro-1H-isoquinolin-4-ylidenemethyl}-amino)-methyl]-benzenesulfonamide], the negative-log IC50 (pIC50) in experiment [1] (setting [12]) was 4.74; in experiment [2] (setting [13]) it was 4.64; in experiment [3] (3 days), < 4.30; in experiment [4] (3 days) it was 4.39; in experiment [5] (setting [14]) it was < 4.30; in experiment [6] (3 days), 4.59. Besides, the pIC50 in experiment [7] (setting [15]) is 6.36.
In the case of `CN(C)C/C=C/C(=O)N1CCCC1c1ccc(N/C=C2\C(=O)NC(=O)c3ccc(I)cc32)cc1` (stereo not drawn) [Example 402, 4-({4-[1-(4-Dimethylamino-but-2-enoyl)-pyrrolidin-2-yl]-phenylamino}-methylene)-6-iodo-4H-isoquinoline-1,3-dione], the pIC50 is < 4.30 in experiment [1] (setting [8]); 5.15 in experiment [2] (setting [13]); 5.22 in experiment [3] (3 days); 5.12 in experiment [4] (3 days); < 4.30 in experiment [5] (setting [10]); 5.40 in experiment [6] (3 days). For the same molecule, the pIC50 in experiment [7] (setting [11]) was 5.54.
Take `O=C1NC(=O)c2ccc(Br)cc2/C1=C/NCCCCO` [Example 211, (4Z)-6-Bromo-4-{[(4-hydroxybutyl)amino]methylene}isoquinoline-1,3(2H,4H)-dione]: the pIC50 was 4.69 in experiment [1] (setting [8]); 4.54 in experiment [2] (setting [9]); 4.32 in experiment [3] (three days); 4.62 in experiment [4] (three days); 4.42 in experiment [5] (setting [10]); 4.57 in experiment [6] (three days). Also, the negative-log IC50 (pIC50) in experiment [7] (setting [11]) is 5.60.
Turning to `CCCOc1ccc(CN/C=C2\C(=O)NC(=O)c3ccc(I)cc32)cc1OC(=O)CCl` [Example 293, 5-({[(Z)-(6-Iodo-1,3-dioxo-2,3-dihydroisoquinolin-4(1H)-ylidene)methyl]amino}methyl)-2-propoxyphenyl chloroacetate], the negative-log IC50 (pIC50) was < 4.30 in experiment [1] (setting [8]); 6.16 in experiment [2] (setting [9]); 6.05 in experiment [3] (three days); 5.66 in experiment [4] (three days); < 4.30 in experiment [5] (setting [10]); 6.11 in experiment [6] (three days). Further, in experiment [7] (setting [11]), the negative-log IC50 (pIC50) is 4.86.
Turning to `CN1Cc2ccc(N/C=C3\C(=O)NC(=O)c4ccc(Br)cc43)cc2C1` [Example 868, (4Z)-6-Bromo-4-{[(2-methyl-2,3-dihydro-1H-isoindol-5-yl)amino]methylene}isoquinoline-1,3(2H,4H)-dione], the pIC50 in experiment [1] (In Vitro Enzyme Assay, read-out: CDK2 IC50) was 5.60; in experiment [2] (setting [13]), 5.17; in experiment [3] (3 days), 5.41; in experiment [4] (3 days), 5.26; in experiment [5] (In Vitro Enzyme Assay, read-out: CDK1 IC50), 4.68; in experiment [6] (3 days), 5.60. In addition, the negative logarithm of the IC50 (pIC50) in experiment [7] (In Vitro Enzyme Assay, read-out: CDK4 IC50) was 5.92.
Consider `C=CC(=O)Nc1ccc2c(c1)/C(=C/Nc1ccc(N3CCN(C)CC3)cc1)C(=O)NC2=O` [Example 385, N-[(4Z)-4-({[4-(4-Methylpiperazin-1-yl)phenyl]amino}methylene)-1,3-dioxo-1,2,3,4-tetrahydroisoquinolin-6-yl]acrylamide], for which the pIC50 in experiment [1] (setting [8]) was 4.68; in experiment [2] (setting [9]), 6.41; in experiment [3] (three days), 5.46; in experiment [4] (three days), 5.80; in experiment [5] (setting [10]), 4.94; in experiment [6] (three days), 5.85. Further, the negative logarithm of the IC50 (pIC50) in experiment [7] (setting [11]) was 4.83.
Regarding `CN1CCCN(c2ccc(N/C=C3\C(=O)NC(=O)c4ccc(Br)cc43)cc2)CC1` [Example 232, (4Z)-6-Bromo-4-({[4-(4-methyl-1,4-diazepan-1-yl)phenyl]amino}methylene)isoquinoline-1,3(2H,4H)-dione], the negative logarithm of the IC50 (pIC50) in experiment [1] (setting [8]) is < 4.30; in experiment [2] (setting [9]), 5.48; in experiment [3] (three days), 5.43; in experiment [4] (three days), 5.68; in experiment [5] (setting [10]), < 4.30; in experiment [6] (three days) it was 5.85. The negative logarithm of the IC50 (pIC50) in experiment [7] (setting [11]) is 5.57.
As for `C=CC(=O)Nc1cnc(CN/C=C2\C(=O)NC(=O)c3ccc(I)cc32)cc1O` [Example 428, N-(4-Hydroxy-6-{[(6-iodo-1,3-dioxo-2,3-dihydro-1H-isoquinolin-4-ylidenemethyl)-amino]-methyl}-pyridin-3-yl)-acrylamide], the pIC50 was 6.15 in experiment [1] (setting [8]); 7.15 in experiment [2] (setting [13]); 6.19 in experiment [3] (3 days); 5.78 in experiment [4] (3 days); 5.19 in experiment [5] (setting [10]); 6.11 in experiment [6] (3 days). Moreover, the negative logarithm of the IC50 (pIC50) in experiment [7] (setting [11]) was 6.89.
Take `CN(C)NC(=O)c1ccc(N/C=C2\C(=O)NC(=O)c3ccc(Br)cc32)cc1` [Example 280, 4-{[(Z)-(6-Bromo-1,3-dioxo-2,3-dihydroisoquinolin-4(1H)-ylidene)methyl]amino}-N′,N′-dimethylbenzohydrazide]: the pIC50 in experiment [1] (setting [8]) was 5.35; in experiment [2] (setting [9]), 4.55; in experiment [3] (three days) it was 4.49; in experiment [4] (three days), 4.77; in experiment [5] (setting [10]) it was < 4.30; in experiment [6] (three days) it was 4.68. In addition, the pIC50 in experiment [7] (setting [11]) is 4.54.
On to `CN1CCN(c2ccc(N/C=C3\C(=O)NC(=O)c4ccc(-c5coc(CN6CCCC6)c5)cc43)nc2)CC1` [Example 449, (4Z)-4-({[5-(4-Methylpiperazin-1-yl)pyridin-2-yl]amino}methylene)-6-[5-(pyrrolidin-1-ylmethyl)-3-furyl]isoquinoline-1,3(2H,4H)-dione], for which the pIC50 in experiment [1] (setting [8]) is < 4.30; in experiment [2] (setting [13]), 5.09; in experiment [3] (3 days), 5.66; in experiment [4] (3 days) it was 5.46; in experiment [5] (setting [10]), < 4.30; in experiment [6] (3 days), 5.59. Also, the negative logarithm of the IC50 (pIC50) in experiment [7] (setting [11]) is 5.44.
Consider `O=Cc1ccc(-c2ccc3c(c2)/C(=C/Nc2ccc(CN4CCCCC4)cc2)C(=O)NC3=O)o1` [Example 492, 5-[(4Z)-1,3-Dioxo-4-({[4-(piperidin-1-ylmethyl)phenyl]amino}methylene)-1,2,3,4-tetrahydroisoquinolin-6-yl]-2-furaldehyde], for which the pIC50 in experiment [1] (setting [12]) is < 4.30; in experiment [2] (setting [13]), 5.48; in experiment [3] (3 days), 5.52; in experiment [4] (3 days) it was 5.39; in experiment [5] (setting [14]), < 4.30; in experiment [6] (3 days) it was 6.00. The pIC50 in experiment [7] (setting [15]) was 6.62.
Turning to `COc1cccc(-c2ccc3c(c2)C(=CNCc2ccc(O)c(O)c2)C(=O)NC3=O)c1` [Example 765, 4-[(3,4-Dihydroxy-benzylamino)-methylene]-6-(3-methoxy-phenyl)-4H-isoquinoline-1,3-dione], the pIC50 is 4.94 in experiment [1] (setting [12]); 4.48 in experiment [2] (setting [13]); 4.74 in experiment [3] (3 days); 4.84 in experiment [4] (3 days); 4.68 in experiment [5] (setting [14]); 4.80 in experiment [6] (3 days). For the same molecule, the pIC50 in experiment [7] (setting [15]) is 6.57.
As to `O=C1NC(=O)c2ccc(Br)cc2/C1=C/NCc1ccc(OCCN2CCCC2)c(O)c1` [Example 143, (4Z)-6-Bromo-4-({[3-hydroxy-4-(2-pyrrolidin-1-ylethoxy)benzyl]amino}methylene) isoquinoline-1,3(2H,4H)-dione], the negative logarithm of the IC50 (pIC50) in experiment [1] (setting [8]) was 5.96; in experiment [2] (setting [9]), 5.24; in experiment [3] (three days), 5.06; in experiment [4] (three days) it was 5.37; in experiment [5] (setting [10]), 4.87; in experiment [6] (three days) it was 5.52. Moreover, the pIC50 in experiment [7] (setting [11]) was 7.22.
Consider `O=C1NC(=O)c2ccc(I)cc2/C1=C/Nc1ccc(N2CCN(CCO)CC2)cc1` [Example 401, (4Z)-4-[({4-[4-(2-Hydroxyethyl)piperazin-1-yl]phenyl}amino)methylene]-6-iodoisoquinoline-1,3(2H,4H)-dione], for which the pIC50 in experiment [1] (setting [8]) is < 4.30; in experiment [2] (setting [13]) it was 5.35; in experiment [3] (3 days), 5.17; in experiment [4] (3 days), 5.29; in experiment [5] (setting [10]) it was 4.64; in experiment [6] (3 days), 5.59. In addition, the negative-log IC50 (pIC50) in experiment [7] (setting [11]) was 6.33.
